Laboratory results published in patent US6262084A, “Compounds that inhibit the binding of integrins to their receptors” (Texas Biotechnology Corporation, priority 1999, dated 2001).

Biological target: T1, α4β1 integrin (Homo sapiens, UniProt P05556+P13612)
T1 construct: Ramos cells fluorescently labeled with calcein; endogenous in cells; host or cells: Ramos cells
Experiment: Inhibition of adhesion of calcein-labeled Ramos cells to CS1 (fibronectin) peptide-conjugated ovalbumin
Assay type: cell-based
Conditions: for IC50: dose required to give 50% inhibition, Ramos cell adhesion to CS1-ovalbumin, 30 minutes at 37° C
Summary of the method: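 Calcein-labelled Ramos cells (2.5×10^5/well) in TBS with 1 mM MgCl2, CaCl2 and MnCl2 adhered to CS1 peptide–ovalbumin coated at 5 μg/ml for 30 min at 37 °C, with or without compound. After washing, bound cells were lysed and read by fluorescence. IC50 is the dose giving 50% inhibition, and % inhibition was measured at 100 μM.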

T1 sequence (P13612 34-1032): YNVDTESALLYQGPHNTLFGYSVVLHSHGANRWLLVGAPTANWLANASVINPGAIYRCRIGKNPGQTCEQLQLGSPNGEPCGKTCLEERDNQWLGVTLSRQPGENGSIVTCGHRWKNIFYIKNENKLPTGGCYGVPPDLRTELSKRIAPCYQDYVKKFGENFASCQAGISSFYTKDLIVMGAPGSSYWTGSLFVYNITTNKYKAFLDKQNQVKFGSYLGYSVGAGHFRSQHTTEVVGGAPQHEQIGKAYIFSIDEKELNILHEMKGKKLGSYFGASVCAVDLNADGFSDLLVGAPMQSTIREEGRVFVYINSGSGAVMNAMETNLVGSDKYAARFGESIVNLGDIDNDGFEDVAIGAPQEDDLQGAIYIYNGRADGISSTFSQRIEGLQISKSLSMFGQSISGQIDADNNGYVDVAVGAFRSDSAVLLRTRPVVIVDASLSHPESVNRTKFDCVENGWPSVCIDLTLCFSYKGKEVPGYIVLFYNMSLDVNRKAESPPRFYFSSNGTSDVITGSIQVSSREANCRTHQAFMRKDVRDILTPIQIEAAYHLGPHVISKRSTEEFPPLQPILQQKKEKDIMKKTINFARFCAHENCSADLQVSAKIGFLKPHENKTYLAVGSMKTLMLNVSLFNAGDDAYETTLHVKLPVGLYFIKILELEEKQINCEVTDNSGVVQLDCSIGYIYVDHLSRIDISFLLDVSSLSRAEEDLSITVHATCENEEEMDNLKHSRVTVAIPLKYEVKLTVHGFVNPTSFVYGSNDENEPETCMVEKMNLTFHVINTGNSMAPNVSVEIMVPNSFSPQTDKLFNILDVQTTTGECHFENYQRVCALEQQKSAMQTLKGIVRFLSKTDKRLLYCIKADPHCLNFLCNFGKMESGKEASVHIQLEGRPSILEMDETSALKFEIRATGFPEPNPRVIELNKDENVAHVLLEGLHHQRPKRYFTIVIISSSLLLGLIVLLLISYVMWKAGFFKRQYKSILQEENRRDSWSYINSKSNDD
T1 sequence (P05556 21-798): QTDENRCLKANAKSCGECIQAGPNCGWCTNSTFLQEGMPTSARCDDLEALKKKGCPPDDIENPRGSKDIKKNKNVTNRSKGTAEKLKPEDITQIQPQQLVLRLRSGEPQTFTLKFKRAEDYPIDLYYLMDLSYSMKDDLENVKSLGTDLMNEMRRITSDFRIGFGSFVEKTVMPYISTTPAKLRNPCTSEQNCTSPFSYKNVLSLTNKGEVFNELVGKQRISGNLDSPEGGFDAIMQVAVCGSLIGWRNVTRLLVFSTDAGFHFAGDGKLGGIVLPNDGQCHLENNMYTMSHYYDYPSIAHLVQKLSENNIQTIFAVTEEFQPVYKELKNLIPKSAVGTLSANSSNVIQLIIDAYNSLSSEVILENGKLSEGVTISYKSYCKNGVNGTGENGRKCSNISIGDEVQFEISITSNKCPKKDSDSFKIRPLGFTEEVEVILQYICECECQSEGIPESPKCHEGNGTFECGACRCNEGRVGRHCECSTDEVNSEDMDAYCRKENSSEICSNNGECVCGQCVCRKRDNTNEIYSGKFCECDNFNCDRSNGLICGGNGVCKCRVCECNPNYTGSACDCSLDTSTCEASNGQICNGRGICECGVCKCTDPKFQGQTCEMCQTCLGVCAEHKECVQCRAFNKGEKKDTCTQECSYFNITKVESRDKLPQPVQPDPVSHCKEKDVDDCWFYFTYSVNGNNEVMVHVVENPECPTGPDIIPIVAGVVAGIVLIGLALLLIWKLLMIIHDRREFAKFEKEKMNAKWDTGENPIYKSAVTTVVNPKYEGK

IC50 (Table 2) [nM]	inhibition at 100 µM (Ramos, Table 1, compound at a concentration of 100 μM, read-out: % A (percent inhibition of cell adhesion)) [%]	IC50 (Table 1) [nM]	SMILES
120	–	–	CCCC[C@H](NC(=O)N[C@@H](CC(=O)O)c1ccc2c(c1)OCO2)C(=O)NCc1ccc(NCc2nccs2)cc1 [Compound 40, 3(3S)-3-(1,3-benzodioxol-5-yl)-3-([((1S)-1-[(4-(1,3-thiazol-2-ylmethyl)aminobenzyl)amino]carbonylpentyl)amino]carbonylamino)propanoic acid]
100	–	–	CCCC[C@H](NC(=O)N[C@@H](CC(=O)O)c1ccc2c(c1)OCO2)C(=O)NCc1ccc(NCc2ccc(C)s2)cc1 [Compound 41, 3(3S)-3-(1,3-benzodioxol-5-yl)-3-([((1S)-1-[(4-(5-methyl-2-thienylmethyl)aminobenzyl)amino]carbonylpentyl)amino]carbonylamino)propanoic acid]
60	–	–	CCCC[C@H](NC(=O)N[C@@H](CC(=O)O)c1ccc2c(c1)OCO2)C(=O)NCc1ccc(NS(=O)(=O)c2cccs2)cc1 [Compound 42, 3(3S)-3-(1,3-benzodioxol-5-yl)-3-([((1S)-1-[(4-(2-thienylsulfonamido)benzyl)amino]carbonylpentyl)amino]carbonylamino)propanoic acid]
120	–	–	CCCC[C@H](NC(=O)N[C@@H](CC(=O)O)c1ccc2c(c1)OCO2)C(=O)NCc1ccc(NCc2cccc(C)n2)cc1 [Compound 43]
–	99	7000	O=C(O)C[C@H](NC(=O)N[C@@H](CC(=O)O)c1ccc2c(c1)OCO2)c1ccc2c(c1)OCO2 [N,N'-bis[(1S)-1-(1,3-benzodioxol-5-yl)-2-carboxyethyl]urea]
